The assay has as its target SpCas9 (Streptococcus pyogenes serotype M1, UniProt Q99ZW2). Kind of assay: eGFP disruption assay, SpCas9, U2OS.eGFP.PEST cells. As to conditions: for Normalized Z rep1 / Z score Rep1: replicate 1; for SpCas9 eGFP disruption Rep1: replicate 1, raw readout; for Normalized Z rep2 / Z socre Rep2: replicate 2; for SpCas9 eGFP disruption Rep2: replicate 2, raw readout. Format: cell-based. The source says:
In some embodiments, the secondary assay may be an EGFP disruption assay. In such assay, a quantitative human cell-based reporter assay that enables rapid quantitation of targeted nuclease activities is used to characterize off-target cleavage of Cas9-based RNA guided endonucleases. In this assay, the activities of nucleases targeted to a single integrated EGFP reporter gene can be quantified by assessing loss of fluorescence signal in human U2OS.EGFP cells caused by inactivating frameshift insertion/deletion (indel) mutations introduced by error prone non-homologous end-joining (NHEJ) repair of nuclease-induced double-stranded breaks (DSBs).
In one protocol, U2OS.EGFP cells harboring a single integrated copy of an EGFP-PEST fusion gene are cultured (see e.g., Reyon et al., Nat Biotech 30, 460-465 (2012), which is herein incorporated by reference in its entirety). For transfections, 200,000 cells are Nucleofected with gRNA expression plasmid and pJDS246 together with 30 ng of a Td-tomato-encoding plasmid using the SE Cell Line 4D-Nucleofector™ X Kit (Lonza) according to the manufacturer's protocol. Cells are analyzed 2 days post-transfection using a BD LSRII flow cytometer. Transfections for optimizing gRNA/Cas9 plasmid concentration are performed in triplicate and all other transfections are performed in duplicate. PCR amplification is used for sequence verification of endogenous human genomic sites. PCR reactions are performed using Phusion Hot Start II high-fidelity DNA polymerase (NEB). Loci are amplified using touchdown PCR (98° C., 10 s; 72-62° C., −1° C./cycle, 15s; 72° C., 30 s] 10 cycles, [98° C., 10s; 62° C., 15s; 72° C., 30 s] 25 cycles). Alternatively, PCR for other targets is performed with 35 cycles at a constant annealing temperature of 68° C. or 72° C., and 3% DMSO or IM betaine, if necessary. PCR products are analyzed on a QIAXCEL capillary electrophoresis system to verify both size and purity. Validated products are treated with ExoSap-IT (Affymetrix) and sequenced by the Sanger method (MGH DNA Sequencing Core) to verify each target site.
Primary and secondary screening. The primary screen assayed a selection of unique chemical scaffolds derived from commercially available compounds and known bioactive molecular libraries (Table 7). Auto-fluorescent compounds were removed by a counter screen. Overall, the CAA was used to assay 122,409 small molecules with over 2,500 unique chemical scaffolds (FIG. 64F, Table 7). Of these compounds, 547 were selected as hits (Z score >3 in both replicates) for testing in orthogonal cell-based secondary assays. Hits were tested in duplicate in an eGFP disruption assay, wherein U2OS.eGFP.PEST cells^33 transfected with SpCas9 plasmid and eGFP-targeting gRNA plasmid were incubated with 20 μM of the compounds. In this assay, any compound that inhibited SpCas9 would rescue the loss of eGFP fluorescence. Here, toxic and auto-fluorescent compounds with a high GFP signal in cells were removed as false positives. […] Next, Applicants tested the 15 compounds in a luminescence-based gain-of-signal HiBiT knock-in assay, which involves SpCas9-mediated homology-directed tagging of GAPDH with a short peptide that luminesces upon complementation with a subunit derived from nanoluciferase.^34 Complementarily, the eGFP-disruption assay is fluorescence-based and involves error-prone DNA repair. As a counter-screen to remove false positives caused by cell death (viability <80%), the cell viability was measured after incubation.
For SAR studies and dose-response studies, 300,000 U2OS.eGFP.PEST cells were nucleofected with 300 ng of SpCas9 plasmid (Addgene #43861) and 30 ng of eGFP-targeting gRNA plasmid (Addgene #47511)^33 using SE Cell Line 4D-Nucleofector X Kit (Lonza) following the pulse program of DN-100. For RNP-based genome editing, 10 pmol of SpCas9 (GenScript #Z03385) and 12 pmol of gRNA were mixed and incubated for 5 min. […]

[1] abbreviates: Cas9 = lower control, Ctrl = upper control.
Where [2] appears, read: normalized, lower control about 0, upper control about 1.

Numbered stars: 1 amine (or outer) side, 2 acyl side, 3 side chain; on linkers, the order of the positions; unused ones are H or OH. Bridge positions count the residues as written; N and C are the ends. Square brackets hold non-standard residues; d marks the D form. Peptide text beside a SMILES is read from it. I, II: the chains in the order shown. Actinocin(9to1) = Cc1c2oc3c(C)ccc(C(=O)[*:1])c3nc-2c(C(=O)[*:2])c(N)c1=O; NMeV = CN[C@H](C(=O)O)C(C)C; Sar = CNCC(=O)O

Chain of SpCas9 (Q99ZW2 whole entry): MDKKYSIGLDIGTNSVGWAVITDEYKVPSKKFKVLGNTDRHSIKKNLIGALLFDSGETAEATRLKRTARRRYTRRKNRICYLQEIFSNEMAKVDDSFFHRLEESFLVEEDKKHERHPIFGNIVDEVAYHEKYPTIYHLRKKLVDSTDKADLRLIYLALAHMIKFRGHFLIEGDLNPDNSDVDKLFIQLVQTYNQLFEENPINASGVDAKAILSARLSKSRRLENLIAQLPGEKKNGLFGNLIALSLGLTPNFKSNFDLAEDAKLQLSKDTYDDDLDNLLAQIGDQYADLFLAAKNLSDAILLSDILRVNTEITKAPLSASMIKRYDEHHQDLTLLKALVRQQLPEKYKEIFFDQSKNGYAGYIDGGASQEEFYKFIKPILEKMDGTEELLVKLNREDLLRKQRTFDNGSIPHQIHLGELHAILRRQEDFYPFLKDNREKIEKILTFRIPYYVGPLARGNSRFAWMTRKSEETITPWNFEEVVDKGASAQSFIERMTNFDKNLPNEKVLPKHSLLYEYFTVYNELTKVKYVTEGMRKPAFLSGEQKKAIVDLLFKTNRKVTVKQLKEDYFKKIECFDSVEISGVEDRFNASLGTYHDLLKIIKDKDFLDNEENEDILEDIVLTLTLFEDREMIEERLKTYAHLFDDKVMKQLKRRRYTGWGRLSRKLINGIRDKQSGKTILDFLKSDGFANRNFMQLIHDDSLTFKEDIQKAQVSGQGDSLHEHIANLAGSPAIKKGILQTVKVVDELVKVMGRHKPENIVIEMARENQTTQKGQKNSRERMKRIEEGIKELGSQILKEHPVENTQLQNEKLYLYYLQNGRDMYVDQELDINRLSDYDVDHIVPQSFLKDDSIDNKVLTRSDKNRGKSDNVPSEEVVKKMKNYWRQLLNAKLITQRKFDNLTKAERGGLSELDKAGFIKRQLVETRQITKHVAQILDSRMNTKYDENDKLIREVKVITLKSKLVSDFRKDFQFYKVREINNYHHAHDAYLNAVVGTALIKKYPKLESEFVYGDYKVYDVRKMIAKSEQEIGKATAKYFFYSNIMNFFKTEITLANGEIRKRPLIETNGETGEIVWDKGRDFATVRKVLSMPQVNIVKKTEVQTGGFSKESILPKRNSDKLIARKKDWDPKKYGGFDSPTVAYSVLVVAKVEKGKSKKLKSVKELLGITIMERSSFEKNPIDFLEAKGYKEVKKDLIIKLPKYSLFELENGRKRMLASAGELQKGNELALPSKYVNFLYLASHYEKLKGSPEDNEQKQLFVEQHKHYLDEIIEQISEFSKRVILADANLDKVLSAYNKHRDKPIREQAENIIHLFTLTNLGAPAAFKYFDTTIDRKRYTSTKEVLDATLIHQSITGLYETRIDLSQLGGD

Consider `Clc1cccc(-c2nnc3sc(-c4ccc5ccccc5n4)nn23)c1` [Compound D727-0890], for which the “Normalized Z rep1” value is −0.17, the “Z score Rep1” value is reported as −1.24, the “SpCas9 eGFP disruption Rep1” value amounted to 62.913 and the “Normalized Z rep2” value is listed as −0.22. Besides, the “Z socre Rep2” value is −2.01 and the “SpCas9 eGFP disruption Rep2” value was determined as 57.037.

In the case of `Cc1ccc(-c2nn3c(-c4cccnc4)nnc3s2)cc1` [Compound D727-0047], the “Normalized Z rep1” value was −0.34, the “Z score Rep1” value is reported as −2.47, the “SpCas9 eGFP disruption Rep1” value was 58.846 and the “Normalized Z rep2” value is −0.29. Further, the “Z socre Rep2” value was −2.72 and the “SpCas9 eGFP disruption Rep2” value amounted to 54.891.

`Cc1nn(-c2ccccc2)c(C)c1CCc1nnc2sc(-c3ccccc3F)nn12` [Compound D727-0713]: the “Z score Rep1” value was found to be 0.38 and the “Z socre Rep2” value came to 1.08. Also, under setting [1], the “SpCas9 eGFP disruption Rep1” value is reported as 68.26 and the “SpCas9 eGFP disruption Rep2” value stood at 66.347. Moreover, under setting [2], the “Normalized Z rep1” value is 0.05 and the “Normalized Z rep2” value worked out at 0.12.

Take `Cc1nn(-c2ccccc2)c(C)c1CCc1nn2c(-c3ccncc3)nnc2s1` [Compound D727-0837]: the “Normalized Z rep1” value is reported as −0.15, the “Z score Rep1” value is −1.06, the “SpCas9 eGFP disruption Rep1” value is 63.496 and the “Normalized Z rep2” value is reported as −0.11. Further, the “Z socre Rep2” value is on record as −1.05 and the “SpCas9 eGFP disruption Rep2” value is 59.923.

As for `Clc1ccccc1OCc1nn2c(-c3ccccn3)nnc2s1` [Compound D727-0524], the “Normalized Z rep1” value is reported as −0.39, the “Z score Rep1” value is −2.83, the “SpCas9 eGFP disruption Rep1” value was 57.663 and the “Normalized Z rep2” value is given as −0.16. Further, the “Z socre Rep2” value is −1.47 and the “SpCas9 eGFP disruption Rep2” value is reported as 58.659.

Regarding `Brc1cccc(-c2nn3c(-c4cccnc4)nnc3s2)c1` [Compound D727-0051], the “Normalized Z rep1” value stood at 0.02, the “Z score Rep1” value came to 0.13, the “SpCas9 eGFP disruption Rep1” value worked out at 67.429 and the “Normalized Z rep2” value was 0.08. The “Z socre Rep2” value is given as 0.79 and the “SpCas9 eGFP disruption Rep2” value turned out to be 65.459.

As to `CN(C)c1cccc(-c2nn3c(-c4ccc5ccccc5c4)nnc3s2)c1` [Compound D727-0754], the “Normalized Z rep1” value is −0.15, the “Z score Rep1” value is recorded as −1.06, the “SpCas9 eGFP disruption Rep1” value is on record as 63.517 and the “Normalized Z rep2” value is reported as −0.59. In addition, the “Z socre Rep2” value is listed as −5.54 and the “SpCas9 eGFP disruption Rep2” value is 46.376.

As to `c1cncc(-c2nnc3sc(Cc4ccc5c(c4)OCCO5)nn23)c1` [Compound D727-0088], the “Normalized Z rep1” value is listed as −0.24, the “Z score Rep1” value was −1.77, the “SpCas9 eGFP disruption Rep1” value is recorded as 61.161 and the “Normalized Z rep2” value is −0.08. Further, the “Z socre Rep2” value is recorded as −0.75 and the “SpCas9 eGFP disruption Rep2” value was 60.83.

With `CC(C)(C)OC(=O)NCCOc1ccc(S(=O)(=O)CCC(=O)Nc2nc(-c3ccncc3)cs2)cc1` [Cpd6], the “Normalized Z rep1” value was −0.10, the “Z score Rep1” value was −1.44, the “SpCas9 eGFP disruption Rep1” value worked out at 54.15 and the “Normalized Z rep2” value was determined as 0.06. The “Z socre Rep2” value worked out at 1.16 and the “SpCas9 eGFP disruption Rep2” value is listed as 57.456.

Turning to `Fc1cccc(-c2nnc3sc(CCCc4ccccc4)nn23)c1` [Compound D727-0404], the “Normalized Z rep1” value is reported as −0.14, the “Z score Rep1” value was −0.99, the “SpCas9 eGFP disruption Rep1” value is 63.741 and the “Normalized Z rep2” value is reported as −0.34. Moreover, the “Z socre Rep2” value was −3.13 and the “SpCas9 eGFP disruption Rep2” value came out at 53.633.

Take `Fc1ccc(-c2nn3c(-c4cnccn4)nnc3s2)cc1Br` [Compound D727-0884]: the “Normalized Z rep1” value was −0.16, the “Z score Rep1” value is −1.16, the “SpCas9 eGFP disruption Rep1” value is on record as 63.178 and the “Normalized Z rep2” value is on record as −0.23. Also, the “Z socre Rep2” value is recorded as −2.10 and the “SpCas9 eGFP disruption Rep2” value is listed as 56.742.

For `COc1ccc(CCc2nnc3sc(-c4ccncc4)nn23)cc1OC` [Compound D727-0712], the “Normalized Z rep1” value is recorded as −0.16, the “Z score Rep1” value is −1.13, the “SpCas9 eGFP disruption Rep1” value is reported as 63.284 and the “Normalized Z rep2” value was −0.29. Further, the “Z socre Rep2” value is reported as −2.66 and the “SpCas9 eGFP disruption Rep2” value was found to be 55.062.

As for `Cc1c2oc3c(C)ccc(C(=O)N[C@@H]4C(=O)N[C@H](C(C)C)C(=O)N5CCC[C@H]5C(=O)N(C)CC(=O)N(C)[C@@H](C(C)C)C(=O)O[C@@H]4C)c3nc-2c(C(=O)N[C@@H]2C(=O)N[C@H](C(C)C)C(=O)N3CCC[C@H]3C(=O)N(C)CC(=O)N(C)[C@@H](C(C)C)C(=O)O[C@@H]2C)c(N)c1=O` [SAM001246846] (I: T[dV]P[Sar][NMeV] / II: T[dV]P[Sar][NMeV]; ester I:1-I:C, II:1-II:C; linker I:N-II:N via Actinocin(9to1)), the “Normalized Z rep1” value is −2.59, the “Z score Rep1” value was −16.90, the “SpCas9 eGFP disruption Rep1” value was 26.655 and the “Normalized Z rep2” value is given as −2.71. The “Z socre Rep2” value is −26.02 and the “SpCas9 eGFP disruption Rep2” value amounted to 24.765.

Consider `COc1ccc(-c2nn3c(-c4ccc5ccccc5n4)nnc3s2)cc1OC` [Compound D727-0743], for which the “Normalized Z rep1” value was −0.03, the “Z score Rep1” value is reported as −0.23, the “SpCas9 eGFP disruption Rep1” value came out at 66.254 and the “Normalized Z rep2” value is on record as −0.13. Moreover, the “Z socre Rep2” value was −1.19 and the “SpCas9 eGFP disruption Rep2” value was found to be 59.503.

On to `c1ccc(-c2nnc3sc(-c4ccc5c(c4)OCO5)nn23)nc1` [Compound D727-0536], for which the “Normalized Z rep1” value is −0.16, the “Z score Rep1” value is reported as −1.18, the “SpCas9 eGFP disruption Rep1” value came out at 63.106 and the “Normalized Z rep2” value is on record as −0.09. The “Z socre Rep2” value was −0.86 and the “SpCas9 eGFP disruption Rep2” value worked out at 60.482.
